Data from ChEMBL document CHEMBL4359931, “Synthesis, biological evaluation and molecular docking studies of new amides of 4-bromothiocolchicine as anticancer agents” (Bioorg Med Chem, 2019).
Activity calls are given as the source filed them. No cut-off for these calls is given here.

How the values were obtained:
MCF7 [1] = test: Cell cycle arrest in human MCF7 cells assessed as accumulation in S phase at 5 times of antiproliferative IC50 incubated for 72 hrs by propidium iodide based flow cytometry (reference value: 19.8 %); type: functional
MCF7 [2] = test: Cell cycle arrest in human MCF7 cells assessed as accumulation in subG1 phase at 5 times of antiproliferative IC50 incubated for 48 hrs by propidium iodide based flow cytometry (reference value: 9.19 %); type: functional
[3] = Cell cycle arrest in human ALL5 cells assessed as accumulation in G2 phase at 5 times of antiproliferative IC50 incubated for 48 hrs by propidium iodide based flow cytometry (reference value: 11.2 %); type: functional
[4] = Selectivity index, ratio of IC50 of mouse BALB/3T3 cells to IC50 of human LoVo cells; type: toxicity; settings: BALB/3T3 cells versus LoVo cells, read-out: Ratio IC50
BALB/3T3 = test: Antiproliferative activity against mouse BALB/3T3 cells assessed as reduction in cell viability incubated for 120 hrs by MTT assay; type: cell-based; settings: BALB/3T3, 120 h
MCF7 [5] = test: Cell cycle arrest in human MCF7 cells assessed as accumulation in S phase at 5 times of antiproliferative IC50 incubated for 24 hrs by propidium iodide based flow cytometry (reference value: 19.9 %); type: functional
[6] = Cell cycle arrest in human ALL5 cells assessed as accumulation in S phase at 5 times of antiproliferative IC50 incubated for 24 hrs by propidium iodide based flow cytometry (reference value: […]); type: functional
[7] = Selectivity index, ratio of IC50 of mouse BALB/3T3 cells to IC50 of human LoVo/DX cells; type: toxicity; settings: BALB/3T3 cells versus LoVo/DX cells, read-out: Ratio IC50
[8] = Cell cycle arrest in human ALL5 cells assessed as accumulation in G1 phase at 5 times of antiproliferative IC50 incubated for 48 hrs by propidium iodide based flow cytometry (reference value: 67.4 %); type: functional
LoVo = test: Antiproliferative activity against human LoVo cells assessed as reduction in cell viability incubated for 120 hrs by MTT assay; type: functional, cell-based
Homo sapiens [9] = species: Homo sapiens; test: Induction of cell cycle arrest in human ALL5 cells assessed as increase in 4 N DNA at 5 times of antiproliferative IC50 incubated for 48 hrs by propidium iodide based flow cytometry; type: functional
[10] = Antiproliferative activity against human LoVo/DX cells assessed as reduction in cell viability incubated for 120 hrs by MTT assay; type: functional, cell-based
MCF7 [11] = test: Cell cycle arrest in human MCF7 cells assessed as accumulation in S phase at 5 times of antiproliferative IC50 incubated for 48 hrs by propidium iodide based flow cytometry (reference value: 34 %); type: functional
[12] = Cell cycle arrest in human ALL5 cells assessed as accumulation in G1 phase at 5 times of antiproliferative IC50 incubated for 24 hrs by propidium iodide based flow cytometry (reference value: 68.1 %); type: functional
Homo sapiens [13] = species: Homo sapiens; test: Induction of cell cycle arrest in human ALL5 cells assessed as increase in 4 N DNA at 5 times of antiproliferative IC50 incubated for 24 hrs by propidium iodide based flow cytometry; type: functional
MCF7 [14] = test: Cell cycle arrest in human MCF7 cells assessed as accumulation in G2 phase at 5 times of antiproliferative IC50 incubated for 24 hrs by propidium iodide based flow cytometry (reference value: 22.4 %); type: functional
[15] = Cell cycle arrest in human ALL5 cells assessed as accumulation in subG1 phase at 5 times of antiproliferative IC50 incubated for 24 hrs by propidium iodide based flow cytometry (reference value: 10.5 %); type: functional
[16] = Cell cycle arrest in human ALL5 cells assessed as accumulation in G2 phase at 5 times of antiproliferative IC50 incubated for 24 hrs by propidium iodide based flow cytometry (reference value: 10.6 %); type: functional
[17] = Cell cycle arrest in human ALL5 cells assessed as accumulation in subG1 phase at 5 times of antiproliferative IC50 incubated for 72 hrs by propidium iodide based flow cytometry (reference value: 15.5 %); type: functional
[18] = Cell cycle arrest in human ALL5 cells assessed as accumulation in S phase at 5 times of antiproliferative IC50 incubated for 72 hrs by propidium iodide based flow cytometry (reference value: 13.5 %); type: functional
MCF7 [19] = test: Cell cycle arrest in human MCF7 cells assessed as accumulation in G1 phase at 5 times of antiproliferative IC50 incubated for 48 hrs by propidium iodide based flow cytometry (reference value: 40.8 %); type: functional
Homo sapiens [20] = species: Homo sapiens; test: Induction of cell death in human ALL5 cells assessed as decrease in 4 N DNA at 5 times of antiproliferative IC50 incubated for 72 hrs by propidium iodide based flow cytometry; type: functional
[21] = Resistance index, ratio of IC50 of human LoVo/DX cells to IC50 of human LoVo cells; type: functional
[22] = Cell cycle arrest in human ALL5 cells assessed as accumulation in G1 phase at 5 times of antiproliferative IC50 incubated for 72 hrs by propidium iodide based flow cytometry (reference value: 59.7 %); type: functional
[23] = Selectivity index, ratio of IC50 of mouse BALB/3T3 cells to IC50 of human MCF7 cells; type: toxicity; settings: BALB/3T3 cells versus MCF7 cells, read-out: Ratio IC50
MCF7 [24] = test: Cell cycle arrest in human MCF7 cells assessed as accumulation in G2 phase at 5 times of antiproliferative IC50 incubated for 72 hrs by propidium iodide based flow cytometry (reference value: 18.6 %); type: functional
MCF7 [25] = test: Cell cycle arrest in human MCF7 cells assessed as accumulation in subG1 phase at 5 times of antiproliferative IC50 incubated for 72 hrs by propidium iodide based flow cytometry (reference value: 3.59 %); type: functional
[26] = Cell cycle arrest in human ALL5 cells assessed as accumulation in S phase at 5 times of antiproliferative IC50 incubated for 48 hrs by propidium iodide based flow cytometry (reference value: 10.3 %); type: functional
MCF7 [27] = test: Cell cycle arrest in human MCF7 cells assessed as accumulation in G1 phase at 5 times of antiproliferative IC50 incubated for 72 hrs by propidium iodide based flow cytometry (reference value: 58 %); type: functional
MCF7 [28] = test: Cell cycle arrest in human MCF7 cells assessed as accumulation in G2 phase at 5 times of antiproliferative IC50 incubated for 48 hrs by propidium iodide based flow cytometry (reference value: 16 %); type: functional
MCF7 [29] = test: Cell cycle arrest in human MCF7 cells assessed as accumulation in subG1 phase at 5 times of antiproliferative IC50 incubated for 24 hrs by propidium iodide based flow cytometry (reference value: 7.79 %); type: functional
[30] = Selectivity index, ratio of IC50 of mouse BALB/3T3 cells to IC50 of human ALL5 cells
MCF7 [31] = test: Antiproliferative activity against human MCF7 cells assessed as reduction in cell viability incubated for 120 hrs by MTT assay; type: functional, cell-based; settings: MCF7, 120 h
MCF7 [32] = test: Cell cycle arrest in human MCF7 cells assessed as accumulation in G1 phase at 5 times of antiproliferative IC50 incubated for 24 hrs by propidium iodide based flow cytometry (reference value: 49.9 %); type: functional
[33] = Selectivity index, ratio of IC50 of mouse BALB/3T3 cells to IC50 of human A549 cells
A549 = test: Antiproliferative activity against human A549 cells assessed as reduction in cell viability incubated for 120 hrs by MTT assay; type: functional, cell-based; settings: A549, 120 h
[34] = Antiproliferative activity against human ALL5 cells assessed as reduction in cell viability incubated for 120 hrs by MTT assay; type: functional, cell-based; settings: ALL5, 120 h
[35] = Cell cycle arrest in human ALL5 cells assessed as accumulation in G2 phase at 5 times of antiproliferative IC50 incubated for 72 hrs by propidium iodide based flow cytometry (reference value: 11.3 %); type: functional
[36] = Cell cycle arrest in human ALL5 cells assessed as accumulation in subG1 phase at 5 times of antiproliferative IC50 incubated for 48 hrs by propidium iodide based flow cytometry (reference value: 11 %); type: functional

Structure (SMILES) | Activity (MCF7 [1]) | Activity (MCF7 [2]) | Activity [3] | selectivity ratio [4] | IC50 (BALB/3T3) | Activity (MCF7 [5]) | Activity [6] | selectivity ratio [7] | Activity [8] | IC50 (LoVo) | Activity (Homo sapiens [9]) | IC50 [10] | Activity (Homo sapiens [20]) | Ratio IC50 [21] | selectivity ratio [23] | Ratio IC50 [30] | IC50 (MCF7 [31]) | Ratio IC50 [33] | IC50 (A549) | IC50 [34] | other results
COc1c(Br)c2c(c(OC)c1OC)-c1ccc(SC)c(=O)cc1[C@@H](NC(=O)C(C)C)CC2 | 15.4% | 11.8% | 20% | 2.9 | 20.4 nM | 5.16% | 13.7% | 0.3 | 32.1% | 7 nM | Active | 75.9 nM | Active | 10.8 | 1.8 | 2.4 | 11.5 nM | 2 | 10.2 nM | 8.6 nM | Activity (MCF7 [11]): 10.6%; Activity [12]: 52.5%; Activity (Homo sapiens [13]): Active; Activity (MCF7 [14]): 78%; Activity [15]: 18%; Activity [16]: 15.8%; Activity [17]: 46.9%; Activity [18]: 22.5%; Activity (MCF7 [19]): 11.4%; Activity [22]: 23%; Activity (MCF7 [24]): 57.5%; Activity (MCF7 [25]): 17.5%; Activity [26]: 15.9%; Activity (MCF7 [27]): 9.6%; Activity (MCF7 [28]): 66.3%; Activity (MCF7 [29]): 4.89%; Activity (MCF7 [32]): 12%; Activity [35]: 7.59%; Activity [36]: 31.9%
CCC(=O)N[C@H]1CCc2c(Br)c(OC)c(OC)c(OC)c2-c2ccc(SC)c(=O)cc21 | 16.3% | 12.5% | 17.5% | 1.6 | 11.2 nM | 7.61% | 12.9% | 0.1 | 35% | 7.2 nM | Active | 87.2 nM | Active | 12.1 | 1 | 1.3 | 11.2 nM | 1.1 | 10.5 nM | 8.5 nM | Activity (MCF7 [11]): 8.78%; Activity [12]: 52.4%; Activity (Homo sapiens [13]): Active; Activity (MCF7 [14]): 74.3%; Activity [15]: 17.4%; Activity [16]: 17.2%; Activity [17]: 45.8%; Activity [18]: 19.5%; Activity (MCF7 [19]): 15%; Activity [22]: 25.7%; Activity (MCF7 [24]): 53.8%; Activity (MCF7 [25]): 17.7%; Activity [26]: 14.5%; Activity (MCF7 [27]): 12.2%; Activity (MCF7 [28]): 63.7%; Activity (MCF7 [29]): 6.15%; Activity (MCF7 [32]): 12%; Activity [35]: 8.93%; Activity [36]: 33%
COc1c(Br)c2c(c(OC)c1OC)-c1ccc(OC)c(=O)cc1[C@@H](NC(C)=O)CC2 | 14.3% | 12.1% | 18.6% | 1.7 | 142 nM | 7.97% | 14.8% | 0.1 | 35% | 83.6 nM | Active | 1550 nM | Active | 18.7 | 5.3 | 24.1 | 26.6 nM | 1.4 | 104 nM | 5.9 nM | Activity (MCF7 [11]): 14.6%; Activity [12]: 51.2%; Activity (MCF7 [14]): 74.9%; Activity [15]: 17.1%; Activity [16]: 16.9%; Activity [17]: 39.7%; Activity [18]: 22.2%; Activity (MCF7 [19]): 12.5%; Activity [22]: 26.9%; Activity (MCF7 [24]): 56.1%; Activity (MCF7 [25]): 16.4%; Activity [26]: 20%; Activity (MCF7 [27]): 13.2%; Activity (MCF7 [28]): 60.8%; Activity (MCF7 [29]): 7.37%; Activity (MCF7 [32]): 9.79%; Activity [35]: 11.2%; Activity [36]: 26.4%
COc1c(Br)c2c(c(OC)c1OC)-c1ccc(SC)c(=O)cc1[C@@H](N)CC2 |  |  |  | 10.1 | 1260 nM |  |  | 1.8 |  | 125 nM | Active | 700 nM | Active | 5.6 | 7.1 | 13.8 | 178 nM | 11 | 115 nM | 91.4 nM | Activity (Homo sapiens [13]): Active
